In patent US9334242B2, “Compounds for treatment of cancer” (GTX, INC., priority 2010, dated 2016):
Read-outs that look alike come from different tables or passages of the source.

Key:
[1] = target: Bovine brain tubulin (Bos taurus, UniProt P81947+Q6B856); assay: In vitro tubulin polymerization assay; assay type: biochemical; details: 10 μM
Method: In Vitro Tubulin Polymerization Assay.
In vitro microtubule polymerization assay. […] The spectrophotometer was maintained at 37° C. for tubulin polymerization.

[2] = system: melanoma (B16-F1, A375, WM-164) and prostate cancer (LNCaP, PC-3, DU 145, PPC-1) cell lines; assay: Cytotoxicity SRB assay, ranges or averages quoted over the melanoma and prostate cancer cell lines; assay type: cell-based
[3] = system: A375 melanoma xenografts; assay: A375 tumor xenograft study in athymic nude mice; assay type: in vivo, mouse; details: for T − C: tumor growth delay
Text: (§1) PC-3 and A375 tumor xenograft studies.

[4] = system: PPC-1; assay: Cytotoxicity / cell growth inhibition, SRB assay; details: Homo sapiens, PPC-1, 96 h, read-out: IC50 ± SEM (nM) PPC-1, Table 12; 96 h exposure
[5] = system: ICR mice; assay: Rotarod test (in vivo neurotoxicity); set-up: species or system mouse; details: 1h 5 or 15 mg/kg, vinblastine 0.5 mg/kg, i.p. daily to day 31
[6] = system: WM-164 melanoma cells; assay: Microtubule imaging (immunofluorescence, Cellomics Cytoskeleton rearrangement kit); assay type: cell-based, human; details: WM-164 cells, 18 h
Text: Primary antibody for tubulin and fluorescence-labeled secondary antibody were subsequently added to the cells. Cell nuclei were stained by DAPI. Whole Cell Stain Green was also applied to all cells. All images were acquired with an Olympus IX71 inverted fluorescence microscope (Olympus Corp., Tokyo, Japan) with overlays from separate images of tubulin (red), nuclei (blue), and whole cells (green).

[7] = system: T1, tubulin colchicine binding site; assay: [3H]-colchicine competition-binding scintillation proximity assay; details: SPA
T1 construct: […]; other: SPA

[8] = system: B16-F1 melanoma cells; assay: Melanoma colony formation assay in soft agar; assay type: cell-based, mouse; details: 14 days, tested 20, 100, 500 nM
Method: B16-F1 melanoma cells were plated at a colony-forming density (2000 cells per well on six-well plates) on top of 0.8% base agar. Cells were grown in 0.4% agar together with DMEM medium supplemented with fetal bovine serum and an antibiotic-antimycotic solution at 37° C. in an atmosphere of 95% air and 5% CO2. […] Compounds were added to the media from 1-mM DMSO stock solutions, and a corresponding dilution of DMSO was used as control. Cells were grown for 14 days. Plates were photographed, and the number of colonies was measured by Artek 880 Automated Colony Counter (Artek Systems Corporation, Farmingdale, N.Y.).

[9] = Pharmacokinetic study in ICR mice; details: ICR mice, 15 mg/kg i.v.
[10] = system: A375 cells; assay: Apoptosis detection by ELISA (cytoplasmic DNA-histone complexes); assay type: cell-based, human; details: 24 h
Text: (§2) Apoptosis detection by ELISA. Quantification of the enrichment of mono- and oligonucleosomes in the cytoplasm was used to determine the ability of the compounds to induce apoptosis (cell death detection ELISA PLUS, Roche, Germany) following the manufacturer's instructions.

[11] = system: PC-3 cells; assay: as above; assay type: cell-based, human; details: 24 h
Text: as §2

[12] = system: PC-3 prostate tumor xenograft; assay: PC-3 tumor xenograft study in nude mice; assay type: in vivo, mouse; details: for % T/C: PC-3 xenograft; for mice that lost more than 15% body weight: PC-3 xenograft study
Text: as §1

[13] = in vivo; details: female, Sprague-Dawley, rat, plasma, iv, 5 mg/kg
[14] = in vivo; details: male, ICR, mouse, plasma, iv, 10 mg/kg
[15] = system: PC-3; assay: Cytotoxicity / cell growth inhibition, SRB assay; details: Homo sapiens
[16] = system: prostate cancer cells (LNCaP, DU 145, PC-3, PPC-1); assay: Cytotoxicity SRB assay, values quoted for the prostate cancer cell panel; assay type: cell-based; details: Homo sapiens, read-out: IC50s against prostate cancer cells (range)
[17] = system: B16-F1 melanoma tumors; assay: In vivo anti-tumor activity, B16-F1 melanoma in C57/BL mice; set-up: species or system mouse; details: 60 mg/kg i.p. daily, 14 days, C57/BL mice (positive control)
[18] = Aqueous solubility, Multiscreen Solubility Filter Plate, PBS pH 7.4, LC-MS/MS; assay type: physicochemical; details: HCl salt of 2r
[19] = quoted in the text to Table 2, read-out: IC50 (range or bound over the tested cancer cell lines)
[20] = after 20 min incubation, compared to vehicle (Example 11D)
[21] = range given, read-out: IC50 (range over the tested cancer cell lines)

Structure (SMILES): Cc1ccc(-c2nc(C(=O)c3ccc(F)cc3)c[nH]2)cc1 [12 db, (4-fluorophenyl)(2-(p-tolyl)-1H-imidazol-4-yl)methanone]
- inhibition of tubulin polymerization ([1]; 15 min (Example 16)): ~80%

Structure (SMILES): COc1cc(C(=O)c2cccc(-c3ccccc3)c2)cc(OC)c1OC [1a, Biphenyl-3-yl(3,4,5-trimethoxyphenyl)methanone]
- IC50 (range over the tested cancer cell lines) ([2]; range given): hundreds of nanomolar range

Structure (SMILES): COc1cc(/C(=N\O)c2csc(-c3ccccc3)n2)cc(OC)c1OC [2e-trans, (E)-(2-Phenylthiazol-4-yl)(3,4,5-trimethoxyphenyl)methanone oxime]
- IC50 [2, 19]: > 10 µM

Structure (SMILES): COc1cc(C(=O)c2csc(-c3ccc(F)cc3)n2)cc(OC)c1OC [SMART-F]
- Total log cell kill ([3]; Melanoma (A375) xenograft, 15 mg/kg i.p., doubling time 4.6 d): 0.7
- T − C ([3]; Melanoma (A375) xenograft, 15 mg/kg i.p.): 11 days

Structure (SMILES): CN(C)c1ccc(-c2nc(C(=O)c3ccc(F)cc3)c[nH]2)cc1 [12gb, (2-(4-(dimethylamino)phenyl)-1H-imidazol-4-yl)(4-fluorophenyl)methanone]
- IC50 [4]: 4 nM

Structure (SMILES): COc1cc(C(=O)c2csc(Nc3ccccc3)n2)cc(OC)c1OC [5a, (2-(Phenylamino)thiazol-4-yl)(3,4,5-trimethoxyphenyl)methanone]
- inhibition of tubulin polymerization [1, 20]: 78%

Structure (SMILES): O=C(c1ccc(F)cc1)c1c[nH]c(-c2ccc(OCc3ccccc3)cc2)n1 [12jb, (2-(4-(benzyloxy)phenyl)-1H-imidazol-4-yl)(4-fluorophenyl)methanone]
- increase in activity compared with 12 kb (fold) [2]: 440 fold

Structure (SMILES): COc1cc(C(=O)c2csc(-c3ccccc3)n2)cc(OC)c1OC [SMART-H]
- T − C ([3]; Melanoma (A375) xenograft, 20 mg/kg i.p.): 10 days

Structure (SMILES): CC[C@]1(O)C[C@@H]2CN(CCc3c([nH]c4ccccc34)[C@@](C(=O)OC)(c3cc4c(cc3OC)N(C)[C@H]3[C@@](O)(C(=O)OC)[C@H](OC(C)=O)[C@]5(CC)C=CCN6CC[C@]43[C@@H]65)C2)C1 [vinblastine, reference compound]
- time on the rotating rod compared to the vehicle group [5]: gradually reduced the time

Structure (SMILES): COc1cc(C(=O)c2c[nH]c(-c3ccc(C)cc3)n2)cc(OC)c1OC [12da, (2-(p-tolyl)-1H-imidazol-4-yl)(3,4,5-trimethoxyphenyl)methanone]
- inhibition of tubulin polymerization ([1]; 15 min (Example 16)): completely inhibited
- effect on microtubule arrangement [6]: microtubule fragmentation
- competition for the tubulin colchicine binding site (in words) [7]: highest binding affinity
- concentration with effective inhibition of B16-F1 melanoma colony formation [8]: 20 nM

Structure (SMILES): COc1cc(C(=NC#N)c2csc(-c3ccccc3)n2)cc(OC)c1OC [2j, N-((2-phenylthiazol-4-yl)(3,4,5-trimethoxyphenyl)methylene)cyanamide]
- inhibition of tubulin polymerization [1, 20]: 64%

Structure (SMILES): COc1cc(C(=O)c2csc(-c3ccc(O)cc3)n2)cc(OC)c1OC [2l, (2-(4-Hydroxyphenyl)thiazol-4-yl)(3,4,5-trimethoxyphenyl)methanone]
- inhibition of tubulin polymerization ([1]; 15 min (Example 22)): 55%
- Vss relative to that of 1h and 2k (times higher) [9]: 2-3 times
- concentration inducing apoptosis [10]: greater than or equal to 200 nM
- concentration inducing apoptosis [11]: greater than or equal to 200 nM
- % T/C ([12]; 50 mg/kg i.p.): 34%
- IC50 [2, 21]: 0.076 to 0.116 µM

Structure (SMILES): COc1cc(C(=O)c2csc(-c3ccc(CN(C)C)cc3)n2)cc(OC)c1OC.Cl [2u, (2-(4-((Dimethylamino)methyl)phenyl)thiazol-4-yl)(3,4,5-trimethoxyphenyl)methanone hydrochloride]
- IC50 (range over the tested cancer cell lines) ([2]; range given): abrogated activity

Structure (SMILES): COc1cc(C(=O)[C@H]2COC(c3ccccc3)=N2)cc(OC)c1OC [35a, (2R)-(2-Phenyl-4,5-dihydro-oxazol-4-yl)-(3,4,5-trimethoxy-phenyl)-methanone]
- IC50 (range over the tested cancer cell lines) ([2]; range given): hundreds of nanomolar range

Structure (SMILES): COc1ccc(-c2nc(C(=O)c3ccc(F)cc3)c[nH]2)cc1 [12cb, (4-fluorophenyl)(2-(4-methoxyphenyl)-1H-imidazol-4-yl)methanone]
- effect on microtubule arrangement [6]: microtubule fragmentation
- concentration with effective inhibition of B16-F1 melanoma colony formation [8]: 20 nM

Structure (SMILES): COc1cc(C(=O)c2c[nH]c(-c3ccc(Cl)cc3)n2)cc(OC)c1OC [12fa, (2-(4-chlorophenyl)-1H-imidazol-4-yl)(3,4,5-trimethoxyphenyl)methanone]
- Vd [13]: 1.9 L/kg
- clearance [13]: 16 mL/min/kg
- Vd [14]: 4 L/kg
- clearance [14]: 61 mL/min/kg

Structure (SMILES): COc1cc(C(=NC#N)c2csc(-c3ccccc3)n2)cc(OC)c1O [compound 32, N-((4-hydroxy-3,5-dimethoxyphenyl)(2-phenylthiazol-4-yl)methylene)cyanamide]
- IC50 ([15]; PC-3, read-out: IC50 (nM) PC-3, Table 6A): 229 nM

Structure (SMILES): COc1cc(C(=O)c2cccc(-c3ccccc3)n2)cc(OC)c1OC [1c, (6-Phenylpyridin-2-yl)(3,4,5-trimethoxyphenyl)methanone]
- IC50 [16]: 0.012 to 0.035 µM

Structure (SMILES): COc1cc(C(=O)c2csc(-c3ccc4[nH]ccc4c3)n2)cc(OC)c1OC [66a]
- inhibition of tubulin polymerization [1, 20]: 81%
- IC50 [2, 21]: 0.007 to 0.025 µM

Structure (SMILES): COc1ccc(S(=O)(=O)Nc2cccnc2Nc2ccc(O)cc2)cc1 [ABT-751, reference compound]
- effect on microtubule arrangement [6]: microtubule fragmentation

Structure (SMILES): COc1cc(C(=O)c2coc(-c3ccccc3)n2)cc(OC)c1OC [36a, (2-Phenyl-oxazol-4-yl)-(3,4,5-trimethoxy-phenyl)-methanone]
- IC50 (range over the tested cancer cell lines) ([2]; range given): hundreds of nanomolar range

Structure (SMILES): COc1cc(C(=O)c2csc(-c3ccccc3)n2)cc(OC)c1OC [1h, (2-Phenyl-thiazol-4-yl)-(3,4,5-trimethoxy-phenyl)-methanone]
- concentration inducing apoptosis [10]: 50 nM
- concentration inducing apoptosis [11]: 50 nM
- mice that lost more than 15% body weight ([12]; 15 mg/kg i.p.): 1 of 8
- time on the rotating rod compared to the vehicle group [5]: no significant difference

Structure (SMILES): CN(C)/N=N/c1[nH]cnc1C(N)=O [DTIC, 5-(3,3,-dimethyl-1-triazenyl)-imidazole-4-carboxamide]
- tumor volume reduction [17]: 51%

Structure (SMILES): COc1cc(C(=O)c2csc(-c3ccc(F)cc3)n2)cc(OC)c1OC [2k]
- inhibition of tubulin polymerization ([1]; 15 min (Example 22)): 90%
- concentration inducing apoptosis [10]: 50 nM
- concentration inducing apoptosis [11]: 50 nM
- % T/C ([12]; 5 mg/kg i.p.): 21%
- % T/C ([12]; 15 mg/kg i.p.): 24%
- mice that lost more than 15% body weight ([12]; 15 mg/kg i.p.): 2 out of 7
- % T/C, A375 ([3]; 1h 20 mg/kg, 2k 15 mg/kg, i.p.): 29%
- tumor volume, A375 ([3]; 1h 20 mg/kg, 2k 15 mg/kg, i.p., 34 days): 722 mm^3

Structure (SMILES): COc1cc(/C(=N/O)c2csc(-c3ccccc3)n2)cc(OC)c1OC [2e-cis, (Z)-(2-Phenylthiazol-4-yl)(3,4,5-trimethoxyphenyl)methanone oxime]
- IC50 [2, 19]: 0.1 to 0.3 µM

Structure (SMILES): COc1cc(C(=O)c2csc(-c3ccc(CN)cc3)n2)cc(OC)c1OC.Cl [2r, (2-(4-(Aminomethyl)phenyl)thiazol-4-yl)(3,4,5-trimethoxyphenyl)methanone hydrochloride]
- increase of solubility (fold) over compound 1h [18]: over 35 fold
- IC50 [2, 21]: 0.013 to 0.08 µM
- IC50 ([15]; PC-3, 96 h, read-out: IC50 ± SEM (nM) PC-3, SRB assay, 96 h of treatment): 80 nM

Structure (SMILES): CNCc1ccc(-c2nc(C(=O)c3cc(OC)c(OC)c(OC)c3)cs2)cc1.Cl [2s, (2-(4-((Methylamino)methyl)phenyl)thiazol-4-yl)(3,4,5-trimethoxyphenyl)methanone hydrochloride]
- IC50 (range over the tested cancer cell lines) ([2]; range given): abrogated activity
